# What was measured:
# Test in all cases: relative viability (nuclei count vs DMSO), 5 days (fraction); higher = more cells survive
# NCI-H1975 = system: NCI-H1975
# Method in brief: (§1)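 Values are medians from duplicate plates. Each reflects relative viability, defined as the nuclei count of treated wells over that of vehicle wells. Lung cancer cell lines in 1536-well plates were pin-tool dosed one day after seeding with one drug alone or with a fixed anchor-drug dose plus five library-drug doses (not always all listed) in √10 steps, then fixed, stained and imaged at 4× after 5 days.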
# NCI-H322M = system: NCI-H322M
# Method in brief: as §1
# RERF-LC-KJ = system: RERF-LC-KJ
# Method in brief: as §1
# PC-3 [JPC-3] = system: PC-3 [JPC-3]
# Method in brief: as §1
# NCI-H1355 = system: NCI-H1355
# Method in brief: as §1
# NCI-H1563 = system: NCI-H1563
# Method in brief: as §1
# EKVX = system: EKVX
# Method in brief: as §1
# LK-2 = system: LK-2
# Method in brief: as §1
# CAL-12T = system: CAL-12T
# Method in brief: as §1
# H3255 = system: H3255
# Method in brief: as §1
# NCI-H1734 = system: NCI-H1734
# Method in brief: as §1
# LCLC-97TM1 = system: LCLC-97TM1
# Method in brief: as §1
# NCI-H2405 = system: NCI-H2405
# Method in brief: as §1
# NCI-H2228 = system: NCI-H2228
# Method in brief: as §1
# HCC-827 = system: HCC-827
# Method in brief: as §1
# PC-14 = system: PC-14
# Method in brief: as §1
# NCI-H661 = system: NCI-H661
# Method in brief: as §1
# HCC-15 = system: HCC-15
# Method in brief: as §1
# NCI-H520 = system: NCI-H520
# Method in brief: as §1
# NCI-H1650 = system: NCI-H1650
# Method in brief: as §1
# NCI-H1755 = system: NCI-H1755
# Method in brief: as §1
structure (smiles),measurement,setting,value
COc1cc2nccc(Oc3ccc(NC(=O)Nc4cc(C)on4)c(Cl)c3)c2cc1OC [Tivozanib] + C[C@@H](Oc1cc(-c2cnn(C3CCNCC3)c2)cnc1N)c1c(Cl)ccc(F)c1Cl [Crizotinib] (partner 1 µM),relative viability,NCI-H1975; first compound 0.005 µM,1.03
same,relative viability,NCI-H1975; first compound 0.01581 µM,0.856
same,relative viability,NCI-H1975; first compound 0.05 µM,0.944
same,relative viability,NCI-H1975; first compound 0.1581 µM,0.833
same,relative viability,NCI-H1975; first compound 0.5 µM,0.826
same,relative viability,NCI-H322M; first compound 0.005 µM,0.9
same,relative viability,NCI-H322M; first compound 0.01581 µM,0.907
same,relative viability,NCI-H322M; first compound 0.05 µM,1.03
same,relative viability,NCI-H322M; first compound 0.1581 µM,0.845
same,relative viability,NCI-H322M; first compound 0.5 µM,0.8
same,relative viability,RERF-LC-KJ; first compound 0.005 µM,0.771
same,relative viability,RERF-LC-KJ; first compound 0.01581 µM,0.81
same,relative viability,RERF-LC-KJ; first compound 0.05 µM,0.863
same,relative viability,RERF-LC-KJ; first compound 0.1581 µM,0.85
same,relative viability,RERF-LC-KJ; first compound 0.5 µM,0.747
same,relative viability,PC-3 [JPC-3]; first compound 0.005 µM,0.912
same,relative viability,PC-3 [JPC-3]; first compound 0.01581 µM,0.997
same,relative viability,PC-3 [JPC-3]; first compound 0.05 µM,0.991
same,relative viability,PC-3 [JPC-3]; first compound 0.1581 µM,1.02
same,relative viability,PC-3 [JPC-3]; first compound 0.5 µM,1.02
same,relative viability,NCI-H1355; first compound 0.005 µM,1.03
same,relative viability,NCI-H1355; first compound 0.01581 µM,1.03
same,relative viability,NCI-H1355; first compound 0.05 µM,1.08
same,relative viability,NCI-H1355; first compound 0.5 µM,1.07
same,relative viability,NCI-H1563; first compound 0.005 µM,0.811
same,relative viability,NCI-H1563; first compound 0.01581 µM,0.857
same,relative viability,NCI-H1563; first compound 0.05 µM,0.81
same,relative viability,NCI-H1563; first compound 0.1581 µM,0.858
same,relative viability,NCI-H1563; first compound 0.5 µM,0.919
same,relative viability,EKVX; first compound 0.005 µM,0.995
same,relative viability,EKVX; first compound 0.01581 µM,1.02
same,relative viability,EKVX; first compound 0.05 µM,0.819
same,relative viability,EKVX; first compound 0.1581 µM,1.06
same,relative viability,EKVX; first compound 0.5 µM,1.22
same,relative viability,LK-2; first compound 0.005 µM,0.253
same,relative viability,LK-2; first compound 0.01581 µM,0.264
same,relative viability,LK-2; first compound 0.05 µM,0.221
same,relative viability,LK-2; first compound 0.1581 µM,0.198
same,relative viability,LK-2; first compound 0.5 µM,0.22
same,relative viability,CAL-12T; first compound 0.005 µM,0.649
same,relative viability,CAL-12T; first compound 0.01581 µM,0.552
same,relative viability,CAL-12T; first compound 0.05 µM,0.568
same,relative viability,CAL-12T; first compound 0.5 µM,0.614
same,relative viability,H3255; first compound 0.005 µM,0.799
same,relative viability,H3255; first compound 0.01581 µM,0.906
same,relative viability,H3255; first compound 0.05 µM,0.911
same,relative viability,H3255; first compound 0.1581 µM,0.777
same,relative viability,H3255; first compound 0.5 µM,0.8
same,relative viability,NCI-H1734; first compound 0.005 µM,0.616
same,relative viability,NCI-H1734; first compound 0.01581 µM,0.63
same,relative viability,NCI-H1734; first compound 0.05 µM,0.682
same,relative viability,NCI-H1734; first compound 0.1581 µM,0.574
same,relative viability,NCI-H1734; first compound 0.5 µM,0.565
same,relative viability,LCLC-97TM1; first compound 0.005 µM,0.224
same,relative viability,LCLC-97TM1; first compound 0.01581 µM,0.302
same,relative viability,LCLC-97TM1; first compound 0.1581 µM,0.365
same,relative viability,LCLC-97TM1; first compound 0.5 µM,0.46
same,relative viability,NCI-H2405; first compound 0.005 µM,0.859
same,relative viability,NCI-H2405; first compound 0.01581 µM,0.846
same,relative viability,NCI-H2405; first compound 0.05 µM,0.933
same,relative viability,NCI-H2405; first compound 0.1581 µM,0.903
same,relative viability,NCI-H2405; first compound 0.5 µM,0.803
same,relative viability,NCI-H2228; first compound 0.005 µM,0.439
same,relative viability,NCI-H2228; first compound 0.01581 µM,0.421
same,relative viability,NCI-H2228; first compound 0.05 µM,0.491
same,relative viability,NCI-H2228; first compound 0.1581 µM,0.453
same,relative viability,NCI-H2228; first compound 0.5 µM,0.605
same,relative viability,HCC-827; first compound 0.005 µM,0.956
same,relative viability,HCC-827; first compound 0.01581 µM,0.928
same,relative viability,HCC-827; first compound 0.05 µM,0.938
same,relative viability,HCC-827; first compound 0.1581 µM,0.988
same,relative viability,HCC-827; first compound 0.5 µM,0.866
same,relative viability,PC-14; first compound 0.005 µM,0.796
same,relative viability,PC-14; first compound 0.01581 µM,0.879
same,relative viability,PC-14; first compound 0.05 µM,0.961
same,relative viability,PC-14; first compound 0.1581 µM,0.879
same,relative viability,PC-14; first compound 0.5 µM,0.885
same,relative viability,NCI-H661; first compound 0.005 µM,0.961
same,relative viability,NCI-H661; first compound 0.01581 µM,0.951
same,relative viability,NCI-H661; first compound 0.05 µM,1.03
same,relative viability,NCI-H661; first compound 0.5 µM,0.947
same,relative viability,HCC-15; first compound 0.005 µM,0.811
same,relative viability,HCC-15; first compound 0.01581 µM,0.824
same,relative viability,HCC-15; first compound 0.05 µM,0.796
same,relative viability,HCC-15; first compound 0.1581 µM,0.79
same,relative viability,HCC-15; first compound 0.5 µM,0.811
same,relative viability,NCI-H520; first compound 0.005 µM,0.822
same,relative viability,NCI-H520; first compound 0.01581 µM,0.827
same,relative viability,NCI-H520; first compound 0.05 µM,0.895
same,relative viability,NCI-H520; first compound 0.1581 µM,0.713
same,relative viability,NCI-H520; first compound 0.5 µM,0.603
same,relative viability,NCI-H1650; first compound 0.005 µM,0.919
same,relative viability,NCI-H1650; first compound 0.01581 µM,1.13
same,relative viability,NCI-H1650; first compound 0.05 µM,0.952
same,relative viability,NCI-H1650; first compound 0.1581 µM,1.09
same,relative viability,NCI-H1650; first compound 0.5 µM,0.866
same,relative viability,NCI-H1755; first compound 0.005 µM,0.832
same,relative viability,NCI-H1755; first compound 0.01581 µM,0.845
same,relative viability,NCI-H1755; first compound 0.05 µM,0.937
same,relative viability,NCI-H1755; first compound 0.1581 µM,0.872
same,relative viability,NCI-H1755; first compound 0.5 µM,0.775
